According to US7585460B2, “Method for inhibiting the biological acidification of water in contact with materials containing sulfur” (ENI S.p.A., priority 2003, dated 2009):

Columns and labels:
Thiobacilli (consortium) [1] = test: Effect of different salts on acidification, TM medium with sulfur powder and inoculated mixed culture (Example 7); format: cell-based, Thiobacillus; settings: salt 0.5 M, day 28
Thiobacilli (consortium) [2] = test: as above; format: cell-based, Thiobacillus
Protocol: The verification is aimed at discovering the effects deriving from the presence of different salts at varying concentrations on the same consortium.
A series of 12 100 ml flasks containing 50 ml of TM medium (with 0.4 g of sulfur powder), was inoculated with 1 ml of mixed culture containing 10^8 cells/ml.
• 3 control flasks containing TM and sulfur, with NaCl (0.16 M, 0.33 M, 0.56 M); • 3 flasks with TM, sulfur and Na2SO4 (0.12 M, 0.24 M, 0.56 M); • 3 flasks with TM, sulfur and KCl (0.13 M, 0.26 M, 0.56 M); • 3 flasks with TM, sulfur and KNO3 (0.09 M, 0.19 M, 0.56 M) The data collected are listed in Table 6.

Thiobacilli = settings: bacteriostatic product; literature (Clark et al. 1998); cited from earlier work
[3] = test system: Thiobacilli (microbial consortium); test: Comparison of NaCl and SLS, TM medium with sulfur flowers and inoculated mixed culture (Example 6); format: cell-based, Thiobacillus; settings: for O.D. / p.H.: C: 20 mg/l of SLS
Protocol: The experiment was aimed at comparing the action of SLS, a known bacteriostatic for Thiobacilli, and Sodium Chloride on the same microbial consortium.
A series of 6 100 ml flasks containing 50 ml of TM medium (with 0.4 g of sulfur flowers), were inoculated with 1 ml of mixed culture containing 10^8 cells/ml.
• A—2 control flasks containing TM and sulfur, without NaCl; • B—2 flasks with TM, sulfur and 33 g/l of NaCl; • C—2 flasks with TM, sulfur and 20 mg/l of SLS (concentration used in literature as bacteriostatic) The pH values and the bacterial growth were measured over a period of 34 days, by means of the increase in the absorbance.

For O=[N+]([O-])[O-].[K+] [KNO3], which PH (Thiobacilli (consortium) [1]) is on record?
The PH was 6.0.

And the PH (Thiobacilli (consortium) [2]; salt 0.09 M, day 0)?
The PH was 6.0.

And the PH (Thiobacilli (consortium) [2]; salt 0.09 M, day 2)?
Its PH is 6.0.

And the PH (Thiobacilli (consortium) [2]; salt 0.09 M, day 6)?
The PH was 3.8.

What about the PH (Thiobacilli (consortium) [2]; salt 0.09 M, day 9) of the same compound?
The PH was 3.0.

What about the PH (Thiobacilli (consortium) [2]; salt 0.09 M, day 12) of the same compound?
Its PH is 3.0.

What about the PH (Thiobacilli (consortium) [2]; salt 0.09 M, day 15) of the same compound?
Its PH is 3.0.

What about the PH (Thiobacilli (consortium) [2]; salt 0.09 M, day 18) of the same compound?
Its PH is 3.0.

What about the PH (Thiobacilli (consortium) [2]; salt 0.09 M, day 20) of the same compound?
The PH was 3.0.

And the PH (Thiobacilli (consortium) [2]; salt 0.09 M, day 24)?
The PH was 3.0.

What about the PH (Thiobacilli (consortium) [2]; salt 0.09 M, day 28) of the same compound?
The PH was 3.0.

And the PH (Thiobacilli (consortium) [2]; salt 0.09 M, day 30)?
Its PH is 3.0.

What about the PH (Thiobacilli (consortium) [2]; salt 0.09 M, day 40) of the same compound?
Its PH is 3.0.

What about the PH (Thiobacilli (consortium) [2]; salt 0.19 M, day 0) of the same compound?
Its PH is 6.0.

What about the PH (Thiobacilli (consortium) [2]; salt 0.19 M, day 2) of the same compound?
Its PH is 6.0.

What about the PH (Thiobacilli (consortium) [2]; salt 0.19 M, day 6) of the same compound?
The PH was 4.8.

What about the PH (Thiobacilli (consortium) [2]; salt 0.19 M, day 9) of the same compound?
The PH was 4.0.

What about the PH (Thiobacilli (consortium) [2]; salt 0.19 M, day 12) of the same compound?
Its PH is 4.0.

And the PH (Thiobacilli (consortium) [2]; salt 0.19 M, day 15)?
The PH was 4.0.

And the PH (Thiobacilli (consortium) [2]; salt 0.19 M, day 18)?
The PH was 4.0.

What about the PH (Thiobacilli (consortium) [2]; salt 0.19 M, day 20) of the same compound?
Its PH is 4.0.

And the PH (Thiobacilli (consortium) [2]; salt 0.19 M, day 24)?
The PH was 4.0.

What about the PH (Thiobacilli (consortium) [2]; salt 0.19 M, day 28) of the same compound?
Its PH is 4.0.

What about the PH (Thiobacilli (consortium) [2]; salt 0.19 M, day 30) of the same compound?
The PH was 3.3.

And the PH (Thiobacilli (consortium) [2]; salt 0.19 M, day 40)?
The PH was 3.2.

And the PH (Thiobacilli (consortium) [2]; salt 0.5 M, day 0)?
The PH was 6.0.

And the PH (Thiobacilli (consortium) [2]; salt 0.5 M, day 2)?
Its PH is 6.0.

And the PH (Thiobacilli (consortium) [2]; salt 0.5 M, day 6)?
The PH was 6.0.

And the PH (Thiobacilli (consortium) [2]; salt 0.5 M, day 9)?
The PH was 6.0.

What about the PH (Thiobacilli (consortium) [2]; salt 0.5 M, day 12) of the same compound?
The PH was 6.0.

And the PH (Thiobacilli (consortium) [2]; salt 0.5 M, day 15)?
Its PH is 6.0.

And the PH (Thiobacilli (consortium) [2]; salt 0.5 M, day 18)?
The PH was 6.0.

What about the PH (Thiobacilli (consortium) [2]; salt 0.5 M, day 20) of the same compound?
The PH was 6.0.

What about the PH (Thiobacilli (consortium) [2]; salt 0.5 M, day 24) of the same compound?
The PH was 6.0.

And the PH (Thiobacilli (consortium) [2]; salt 0.5 M, day 30)?
The PH was 6.0.

What about the PH (Thiobacilli (consortium) [2]; salt 0.5 M, day 40) of the same compound?
The PH was 5.8.

What does the source list for O=S(=O)([O-])[O-].[Na+].[Na+] [Na2SO4]?
PH (Thiobacilli (consortium) [2]; salt 0.12 M, day 0): 6.0; PH (Thiobacilli (consortium) [2]; salt 0.12 M, day 2): 6.0; PH (Thiobacilli (consortium) [2]; salt 0.12 M, day 6): 3.5; PH (Thiobacilli (consortium) [2]; salt 0.12 M, day 9): 2.8; PH (Thiobacilli (consortium) [2]; salt 0.12 M, day 12): 2.8; PH (Thiobacilli (consortium) [2]; salt 0.12 M, day 15): 2.8; PH (Thiobacilli (consortium) [2]; salt 0.12 M, day 18): 2.5; PH (Thiobacilli (consortium) [2]; salt 0.12 M, day 20): 1.8; PH (Thiobacilli (consortium) [2]; salt 0.12 M, day 24): 1.8; PH (Thiobacilli (consortium) [2]; salt 0.12 M, day 28): 1.6; PH (Thiobacilli (consortium) [2]; salt 0.12 M, day 30): 1.6; PH (Thiobacilli (consortium) [2]; salt 0.12 M, day 40): 1.4; PH (Thiobacilli (consortium) [2]; salt 0.24 M, day 0): 6.0; PH (Thiobacilli (consortium) [2]; salt 0.24 M, day 2): 6.0; PH (Thiobacilli (consortium) [2]; salt 0.24 M, day 6): 4.5; PH (Thiobacilli (consortium) [2]; salt 0.24 M, day 9): 4.0; PH (Thiobacilli (consortium) [2]; salt 0.24 M, day 12): 3.5; PH (Thiobacilli (consortium) [2]; salt 0.24 M, day 15): 3.0; PH (Thiobacilli (consortium) [2]; salt 0.24 M, day 18): 2.8; PH (Thiobacilli (consortium) [2]; salt 0.24 M, day 20): 2.0; PH (Thiobacilli (consortium) [2]; salt 0.24 M, day 24): 2.0; PH (Thiobacilli (consortium) [2]; salt 0.24 M, day 28): 1.7; PH (Thiobacilli (consortium) [2]; salt 0.24 M, day 30): 1.5; PH (Thiobacilli (consortium) [2]; salt 0.24 M, day 40): 1.5; PH (Thiobacilli (consortium) [2]; salt 0.56 M, day 0): 6.0; PH (Thiobacilli (consortium) [2]; salt 0.56 M, day 2): 6.0; PH (Thiobacilli (consortium) [2]; salt 0.56 M, day 6): 6.0; PH (Thiobacilli (consortium) [2]; salt 0.56 M, day 9): 6.0; PH (Thiobacilli (consortium) [2]; salt 0.56 M, day 12): 6.0; PH (Thiobacilli (consortium) [2]; salt 0.56 M, day 15): 5.9; PH (Thiobacilli (consortium) [2]; salt 0.56 M, day 18): 5.9; PH (Thiobacilli (consortium) [2]; salt 0.56 M, day 20): 5.9; PH (Thiobacilli (consortium) [2]; salt 0.56 M, day 24): 5.9; PH (Thiobacilli (consortium) [2]; salt 0.56 M, day 28): 5.9; PH (Thiobacilli (consortium) [2]; salt 0.56 M, day 30): 5.9; PH (Thiobacilli (consortium) [2]; salt 0.56 M, day 40): 5.8

Which results are given for CCCCCCCCCCCCOS(=O)(=O)[O-].[Na+] [SLS, Sodium Lauryl Sulfate, reference compound]?
reduction of corrosion of metallic containers used for transporting or containing sulfur (Thiobacilli): effective for reducing the corrosion; inhibition of the acidification of water in contact with elemental sulfur ([3]; 33 g/l NaCl, 20 mg/l SLS): capable of inhibiting the acidification; O.D. ([3]; day 0): 0.014; p.H. ([3]; day 0): 6.0; O.D. ([3]; day 3): 0.013; p.H. ([3]; day 3): 4.5; O.D. ([3]; day 5): 0.042; p.H. ([3]; day 5): 4.5; O.D. ([3]; day 8): 0.073; p.H. ([3]; day 8): 4.0; O.D. ([3]; day 11): 0.067; p.H. ([3]; day 11): 4.0; O.D. ([3]; day 16): 0.098; p.H. ([3]; day 16): 3.8; O.D. ([3]; day 21): 0.080; p.H. ([3]; day 21): 3.8; O.D. ([3]; day 23): 0.035; p.H. ([3]; day 23): 3.8; O.D. ([3]; day 28): 0.033; p.H. ([3]; day 28): 3.2; O.D. ([3]; day 31): 0.020; p.H. ([3]; day 31): 3.2

Which PH (Thiobacilli (consortium) [2]; salt 0.13 M, day 0) does the source give for [Cl-].[K+] [KCl] here?
The PH was 6.0.

And the PH (Thiobacilli (consortium) [2]; salt 0.13 M, day 2)?
The PH was 6.0.

And the PH (Thiobacilli (consortium) [2]; salt 0.13 M, day 6)?
The PH was 4.5.

What about the PH (Thiobacilli (consortium) [2]; salt 0.13 M, day 9) of the same compound?
The PH was 4.0.

And the PH (Thiobacilli (consortium) [2]; salt 0.13 M, day 12)?
Its PH is 3.5.

And the PH (Thiobacilli (consortium) [2]; salt 0.13 M, day 15)?
Its PH is 3.0.

What about the PH (Thiobacilli (consortium) [2]; salt 0.13 M, day 18) of the same compound?
Its PH is 3.0.

What about the PH (Thiobacilli (consortium) [2]; salt 0.13 M, day 20) of the same compound?
Its PH is 3.0.

And the PH (Thiobacilli (consortium) [2]; salt 0.13 M, day 24)?
The PH was 2.5.

And the PH (Thiobacilli (consortium) [2]; salt 0.13 M, day 28)?
Its PH is 2.5.

What about the PH (Thiobacilli (consortium) [2]; salt 0.13 M, day 30) of the same compound?
The PH was 2.4.

What about the PH (Thiobacilli (consortium) [2]; salt 0.13 M, day 40) of the same compound?
Its PH is 1.5.

And the PH (Thiobacilli (consortium) [2]; salt 0.26 M, day 0)?
Its PH is 6.0.

And the PH (Thiobacilli (consortium) [2]; salt 0.26 M, day 2)?
Its PH is 6.0.

What about the PH (Thiobacilli (consortium) [2]; salt 0.26 M, day 6) of the same compound?
The PH was 5.5.

What about the PH (Thiobacilli (consortium) [2]; salt 0.26 M, day 9) of the same compound?
Its PH is 5.5.

And the PH (Thiobacilli (consortium) [2]; salt 0.26 M, day 12)?
Its PH is 5.5.

And the PH (Thiobacilli (consortium) [2]; salt 0.26 M, day 15)?
Its PH is 5.5.

What about the PH (Thiobacilli (consortium) [2]; salt 0.26 M, day 18) of the same compound?
Its PH is 5.2.

And the PH (Thiobacilli (consortium) [2]; salt 0.26 M, day 20)?
The PH was 5.2.

And the PH (Thiobacilli (consortium) [2]; salt 0.26 M, day 24)?
The PH was 5.0.

What about the PH (Thiobacilli (consortium) [2]; salt 0.26 M, day 28) of the same compound?
The PH was 5.0.

What about the PH (Thiobacilli (consortium) [2]; salt 0.26 M, day 30) of the same compound?
The PH was 5.0.

What about the PH (Thiobacilli (consortium) [2]; salt 0.26 M, day 40) of the same compound?
Its PH is 4.9.

And the PH (Thiobacilli (consortium) [2]; salt 0.56 M, day 0)?
Its PH is 6.0.

What about the PH (Thiobacilli (consortium) [2]; salt 0.56 M, day 2) of the same compound?
Its PH is 6.0.

And the PH (Thiobacilli (consortium) [2]; salt 0.56 M, day 6)?
The PH was 6.0.

And the PH (Thiobacilli (consortium) [2]; salt 0.56 M, day 9)?
Its PH is 6.0.

What about the PH (Thiobacilli (consortium) [2]; salt 0.56 M, day 12) of the same compound?
Its PH is 6.0.

What about the PH (Thiobacilli (consortium) [2]; salt 0.56 M, day 15) of the same compound?
Its PH is 6.0.

And the PH (Thiobacilli (consortium) [2]; salt 0.56 M, day 18)?
The PH was 6.0.

And the PH (Thiobacilli (consortium) [2]; salt 0.56 M, day 20)?
Its PH is 6.0.

What about the PH (Thiobacilli (consortium) [2]; salt 0.56 M, day 24) of the same compound?
The PH was 6.0.

What about the PH (Thiobacilli (consortium) [2]; salt 0.56 M, day 28) of the same compound?
The PH was 6.0.

What about the PH (Thiobacilli (consortium) [2]; salt 0.56 M, day 30) of the same compound?
Its PH is 6.0.

What about the PH (Thiobacilli (consortium) [2]; salt 0.56 M, day 40) of the same compound?
The PH was 5.8.
